Source: patent US20260265195A1, “SARM1 MODULATORS, PREPARATIONS, AND USES THEREOF” (SIRONAX LTD, priority 2022, published 2026)

Biological target: T1, SARM1 (50-724) (Homo sapiens, UniProt Q6SZW1)
T1 construct: Purified SARM1 (50-724) with a final concentration of 2 nM
T1 sequence (Q6SZW1 50-724): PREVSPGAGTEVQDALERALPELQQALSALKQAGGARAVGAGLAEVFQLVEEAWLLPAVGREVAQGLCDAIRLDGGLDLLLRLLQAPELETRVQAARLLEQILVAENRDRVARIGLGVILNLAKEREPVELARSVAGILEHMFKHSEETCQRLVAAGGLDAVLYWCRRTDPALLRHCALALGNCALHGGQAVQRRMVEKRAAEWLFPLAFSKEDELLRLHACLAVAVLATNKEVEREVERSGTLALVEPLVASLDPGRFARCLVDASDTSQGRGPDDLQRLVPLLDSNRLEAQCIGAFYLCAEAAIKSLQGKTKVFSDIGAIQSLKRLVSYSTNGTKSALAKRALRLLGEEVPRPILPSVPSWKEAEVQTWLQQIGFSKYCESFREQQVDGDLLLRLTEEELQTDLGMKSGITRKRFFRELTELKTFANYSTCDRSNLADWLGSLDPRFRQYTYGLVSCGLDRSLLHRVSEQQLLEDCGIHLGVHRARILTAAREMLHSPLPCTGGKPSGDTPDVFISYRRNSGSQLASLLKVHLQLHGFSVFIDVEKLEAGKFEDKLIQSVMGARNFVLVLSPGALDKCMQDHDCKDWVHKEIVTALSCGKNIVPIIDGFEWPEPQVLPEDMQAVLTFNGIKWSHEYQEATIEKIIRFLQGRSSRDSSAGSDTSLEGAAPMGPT
Test: SARM1 (50-724) enzymatic assay (NMN-activated NAD+ hydrolysis, LC-MS/MS readout)
Format: biochemical
Settings: purified SARM1 (50-724) 2 nM, 200 μM NMN activator, 100 μM NAD+ substrate, 1 h at room temperature, read-out: IC50 (SARM1 inhibitory activity)
Method: Example II. SARM1 (50-724) Enzymatic Assay
An enzymatic assay was performed in a 384-well plate using Dulbecco's phosphate-buffered saline (PBS) as the reaction buffer. Purified SARM1 (50-724) with a final concentration of 2 nM was pre-incubated with a test compound at 1% DMSO final assay concentration for 15 min at room temperature. The reaction was initiated by adding a mixture of 200 μM nicotinamide mononucleotide (NMN) as activator and 100 μM NAD^+ as substrate. After 1 h of incubation at room temperature, the reaction was terminated with 10 times volume of 70% acetonitrile, then centrifuged at 3800 rpm for 10 min. The samples were analyzed using LC-MS/MS after diluted to a proper concentration by 10 mM ammonium acetate (pH 9.75).
ND means “not determined.”

Row | IC50 [nM] | Structure (SMILES)
1 | 101 to 500 | Cc1ccc2[nH]c(C(=O)N(C)C3CCCC3)c(C#N)c2c1 [Compound 70, 3-cyano-N-cyclopentyl-N,5-dimethyl-1H-indole-2-carboxamide]
2 | ≤ 100 | Cc1ccc2[nH]c(C(=O)N(CCO)c3cccc(Cl)c3Cl)c(C#N)c2c1 [Compound 71, 3-cyano-N-(2,3-dichlorophenyl)-N-(2-hydroxyethyl)-5-methyl-1H-indole-2-carboxamide]
3 | 101 to 500 | Cc1ccc2[nH]c(C(=O)N(C)C3CCCC3)c(CNc3nc(C(N)=O)cs3)c2c1 [Compound 73, 2-(((2-(cyclopentyl(methyl)carbamoyl)-5-methyl-1H-indol-3-yl)methyl)amino)thiazole-4-carboxamide]
4 | ≤ 100 | Cc1ccc2[nH]c(C(=O)N(C)c3cccc(Cl)c3Cl)c(CNc3nc(C(N)=O)c(C(C)C)s3)c2c1 [Compound 74, 2-(((2-((2,3-dichlorophenyl)(methyl)carbamoyl)-5-methyl-1H-indol-3-yl)methyl)amino)-5-isopropylthiazole-4-carboxamide]
5 | 501 to 1000 | Cc1ccc2[nH]c(C(=O)N(C)C3CCCC3)c(COc3nccs3)c2c1 [Compound 75, N-cyclopentyl-N,5-dimethyl-3-((thiazol-2-yloxy)methyl)-1H-indole-2-carboxamide]
6 | 101 to 500 | Cc1ccc2[nH]c(C(=O)N(C)C3CCCC3)c(CNc3nccs3)c2c1 [Compound 76, N-cyclopentyl-N,5-dimethyl-3-((thiazol-2-ylamino)methyl)-1H-indole-2-carboxamide]
7 | ≥ 1000 | Cc1ccc2[nH]c(C(=O)N(C)C3CCCC3)c(CNc3ncc[nH]3)c2c1 [Compound 77, 3-(((1H-imidazol-2-yl)amino)methyl)-N-cyclopentyl-N,5-dimethyl-1H-indole-2-carboxamide]
8 | 101 to 500 | Cc1ccc2[nH]c(C(=O)N(C)C3CCCC3)c(CNc3cncs3)c2c1 [Compound 78, N-cyclopentyl-N,5-dimethyl-3-((thiazol-5-ylamino)methyl)-1H-indole-2-carboxamide]
9 | ≤ 100 | Cc1ccc2[nH]c(C(=O)N(C)c3cccc(Cl)c3Cl)c(CNc3nccs3)c2c1 [Compound 79, N-(2,3-dichlorophenyl)-N,5-dimethyl-3-((thiazol-2-ylamino)methyl)-1H-indole-2-carboxamide]
10 | ≤ 100 | Cc1ccc2[nH]c(C(=O)N(C)C3CCCC3)c(CNc3ncco3)c2c1 [Compound 80, N-cyclopentyl-N,5-dimethyl-3-((oxazol-2-ylamino)methyl)-1H-indole-2-carboxamide]
11 | ≥ 1000 | Cc1ccc2[nH]c(C(=O)N(C)C3CCCC3)c(CNc3cn[nH]c3)c2c1 [Compound 81, 3-(((1H-pyrazol-4-yl)amino)methyl)-N-cyclopentyl-N,5-dimethyl-1H-indole-2-carboxamide]
12 | 101 to 500 | Cc1ccc2[nH]c(C(=O)N(C)C3CCCC3)c(CNc3ccccn3)c2c1 [Compound 82, N-cyclopentyl-N,5-dimethyl-3-((pyridin-2-ylamino)methyl)-1H-indole-2-carboxamide]
13 | 101 to 500 | Cc1ccc2[nH]c(C(=O)N(C)C3CCCC3)c(CNc3cc(C)[nH]n3)c2c1 [Compound 83, N-cyclopentyl-N,5-dimethyl-3-(((5-methyl-1H-pyrazol-3-yl)amino)methyl)-1H-indole-2-carboxamide]
14 | ≥ 1000 | Cc1ccc2[nH]c(C(=O)N(C)C3CCNCC3)c(CNc3ccccn3)c2c1 [Compound 84, N,5-dimethyl-N-(piperidin-4-yl)-3-((pyridin-2-ylamino)methyl)-1H-indole-2-carboxamide]
15 | ≥ 1000 | Cc1ccc2[nH]c(C(=O)N(C)C3CCN(C(=O)OC(C)(C)C)CC3)c(CNc3ccccn3)c2c1 [Compound 85, tert-butyl 4-(N,5-dimethyl-3-((pyridin-2-ylamino)methyl)-1H-indole-2-carboxamido)piperidine-1-carboxylate]
16 | ≥ 1000 | Cc1ccc2[nH]c(C(=O)N(C)C3CCN(C)CC3)c(CNc3ccccn3)c2c1 [Compound 86, N,5-dimethyl-N-(1-methylpiperidin-4-yl)-3-((pyridin-2-ylamino)methyl)-1H-indole-2-carboxamide]
17 | ≥ 1000 | Cc1ccc2[nH]c(C(=O)N3CCCCC3)c(CNc3ccccn3)c2c1 [Compound 87, (5-methyl-3-((pyridin-2-ylamino)methyl)-1H-indol-2-yl)(piperidin-1-yl)methanone]
18 | ≥ 1000 | Cc1ccc2[nH]c(C(=O)N(C)CCC(C)C)c(CNc3ccccn3)c2c1 [Compound 88, N-isopentyl-N,5-dimethyl-3-((pyridin-2-ylamino)methyl)-1H-indole-2-carboxamide]

Row | IC50 [nM] | Structure (SMILES)
19 | 501 to 1000 | Cc1ccc2[nH]c(C(=O)NC(C)CC(C)C)c(CNc3ccccn3)c2c1 (centres unmarked) [Compound 89, 5-methyl-N-(4-methylpentan-2-yl)-3-((pyridin-2-ylamino)methyl)-1H-indole-2-carboxamide]
20 | ≥ 1000 | Cc1ccc2[nH]c(C(=O)N(C)C3CCOCC3)c(CNc3ccccn3)c2c1 [Compound 90, N,5-dimethyl-3-((pyridin-2-ylamino)methyl)-N-(tetrahydro-2H-pyran-4-yl)-1H-indole-2-carboxamide]
21 | 101 to 500 | Cc1ccc2[nH]c(C(=O)N(C)C3CCCCC3)c(CNc3ccccn3)c2c1 [Compound 91, N-cyclohexyl-N,5-dimethyl-3-((pyridin-2-ylamino)methyl)-1H-indole-2-carboxamide]
22 | 101 to 500 | Cc1ccc2[nH]c(C(=O)N(C)C3CCCC3)nc2c1C [Compound 92, N-cyclopentyl-N,6,7-trimethyl-1H-benzo[d]imidazole-2-carboxamide]
23 | 501 to 1000 | CN(C(=O)c1nc2c(C3CC3)cccc2[nH]1)C1CCCC1 [Compound 93, N-cyclopentyl-4-cyclopropyl-N-methyl-1H-benzo[d]imidazole-2-carboxamide]
24 | ≥ 1000 | CCc1cccc2[nH]c(C(=O)N(C)C3CCCC3)nc12 [Compound 94, N-cyclopentyl-4-ethyl-N-methyl-1H-benzo[d]imidazole-2-carboxamide]
25 | ≥ 1000 | CN(C(=O)c1nc2c(C#N)cccc2[nH]1)C1CCCC1 [Compound 95, 4-cyano-N-cyclopentyl-N-methyl-1H-benzo[d]imidazole-2-carboxamide]
26 | ≤ 100 | Cc1ccc2[nH]c(C(=O)N(C)C3CCCC3)c(C(N)=O)c2c1 [Compound 96, N2-cyclopentyl-N2,5-dimethyl-1H-indole-2,3-dicarboxamide]
27 | 101 to 500 | Cc1ccc2[nH]c(C(=O)N(C)C3CCCC3)nc2c1C#N [Compound 97, 4-cyano-N-cyclopentyl-N,5-dimethyl-1H-benzo[d]imidazole-2-carboxamide]
28 | ≤ 100 | Cc1ccc2[nH]c(C(=O)N(CCO)c3cccc(Cl)c3Cl)nc2c1 [Compound 98, N-(2,3-dichlorophenyl)-N-(2-hydroxyethyl)-5-methyl-1H-benzo[d]imidazole-2-carboxamide]
29 | ≥ 1000 | CN(C(=O)c1nc2c(S(C)(=O)=O)cccc2[nH]1)C1CCCC1 [Compound 99, N-cyclopentyl-N-methyl-4-(methylsulfonyl)-1H-benzo[d]imidazole-2-carboxamide]
30 | ≤ 100 | O=C(c1nc2cc(C(F)(F)F)ccc2[nH]1)N(CCO)c1nccc(Cl)c1Cl [Compound 100, N-(3,4-dichloropyridin-2-yl)-N-(2-hydroxyethyl)-5-(trifluoromethyl)-1H-benzo[d]imidazole-2-carboxamide]
31 | ≥ 1000 | CN(C(=O)c1nc2c(N3CCOCC3)cccc2[nH]1)C1CCCC1 [Compound 101, N-cyclopentyl-N-methyl-4-morpholino-1H-benzo[d]imidazole-2-carboxamide]
32 | ≤ 100 | CC1CCC(C)C1N(CCO)C(=O)c1nc2cc(C(F)(F)F)ccc2[nH]1 (centres unmarked) [Compound 102, N-(2,5-dimethylcyclopentyl)-N-(2-hydroxyethyl)-5-(trifluoromethyl)-1H-benzo[d]imidazole-2-carboxamide]
33 | ≤ 100 | O=C(c1nc2cc(C(F)(F)F)ccc2[nH]1)N(CCO)c1cccc(Cl)c1Cl [Compound 103, N-(2,3-dichlorophenyl)-(2-hydroxyethyl)-5-(trifluoromethyl)-1H-benzo[d]imidazole-2-carboxamide]
34 | 101 to 500 | CN(C(=O)c1nc2cc(Br)ccc2[nH]1)C1CCCC1 [Compound 104, 5-bromo-N-cyclopentyl-N-methyl-1H-benzo[d]imidazole-2-carboxamide]
35 | ≤ 100 | O=C(c1nc2cc(C(F)(F)F)ccc2[nH]1)N(CC1COC1)c1cccc(Cl)c1Cl [Compound 105, N-(2,3-dichlorophenyl)-N-(oxetan-3-ylmethyl)-5-(trifluoromethyl)-1H-benzo[d]imidazole-2-carboxamide]
